Measured values as given in patent US8637040B2, “Genus-wide chlamydial peptide vaccine antigens” (priority 2008, dated 2014).

Legend:
[1] = tested on: C. trachomatis-infected HEp2 cells; assay: Indirect immunofluorescence of immune sera on infected HEp2 cells; assay type: cell-based, human; details: sera 1:40 dilution, FITC anti-mouse IgG
From the text: Micrographs of HEp2 cells infected with C. trachomatis are immunostained (by indirect immunofluorescence) with sera (1:40 dilution) from mice immunized with the designated peptides (A-E) or soluble. mAb2 (F). FITC anti-mouse IgG was the detecting antibody. Arrows point to distinct differences in targets of the immune sera. Antibodies in panels A-C recognized EB and RB and possibly some matrix material in the inclusion. Antibodies in D-E also recognized targets in the inclusion matrix and inclusion membrane, similar to immune sera raised against the older vaccine candidate, the entire mAb2 (F). 40× original magnification. Samples are counterstained with Evans blue.
HEp2 cells were infected with C. trachomatis were subjected to cytocentrifugation to deposit them onto microscope slides. After fixation (MeOH) they were stained with sera (1:40 dilution) from mice immunized with the indicated peptides or with soluble mAb2. The binding of the antibodies to the cells was detected using a fluorescent (FITC-labeled) secondary Ab, an anti-mouse IgG. Results appear in FIGS. 9A-F.

human sera = assay: ELISA of human serum samples on 4 peptides (Example XI); assay type: binding
Method: (§1) Blood was collected prior to immunizations and prior to the two boosts. Sera were tested in ELISA. The ELISA method used in the present examples, in which many if not all the parameters and conditions may be varied or modified in ways that are completely conventional in the art, is described below. • 1. 96 well plates (Immulon HBX4) were coated with 50 μl of diluted antigen (peptides at 1 μg/well made in carbonate buffer) and incubated overnight at 4° C. • 2. Unbound antigen was removed by flicking the contents of the plate into a sink without further washing. • 3. Non-specific binding was blocked or prevented by adding 300 μL/well of 4% BSA/PBS-Tween 20 (0.05%). This was allowed to incubate for 2 hour at room temperature. • 4. The plates were washed once with PBS-Tween 20 (0.05%) and 50 μl of primary antibody was added per well at appropriate dilutions. When using serum, the starting dilution was 1:40 and was further diluted by doublings to 1:80, 1:160, and 1:320 (or higher as desired). Plates were incubated for 1 hour at 37° C. • 5. Plates were washed three times with PBS-Tween (0.05%) as above and 100 μl of secondary antibody was added per well at appropriate dilutions. For alkaline phosphatase-conjugated goat anti-mouse IgG-AP, a dilution of 1:500 was used here. Plates were incubated for 1 hour at 37° C. • 6. Plates were again washed three times as above and 200 μl of substrate solution for Alkaline phosphatase (p-nitro phenyl phosphate or pNPP) was added at a concentration of 5 mg/ml. The color reaction was read in an automated microplate reader at a frequency of […] and the absorbance (or optical density) was registered (referred to as A405 or OD405) Several important observations were made in these tests against the 4 peptides: (a) all 4 peptides were immunogenic and induced increasing anti-peptide responses with subsequent boosts in all mice (except in one non-responder) (FIG. 3). […] See also FIG. 16A-16B
Human sera were tested by PCR for expression of several chlamydial genes, by IHC against C. trachomatis-infected cells and by ELISA against several of the peptides of the present invention. Results are shown in Table 7 (below) which include results from PCR-studies for presence of DNA encoding the chlamydial Major Outer Membrane Protein (MOMP) in human peripheral blood mononuclear cells (PBMC) (which are primarily lymphocytes and monocytes) and cervical swabs
Also shown is IHC staining of C. trachomatis-infected human HEp2 cells and binding of antibodies in the patient samples to four peptides of the present invention (Pep4, 7, 8, and 10) in ELISA.

C trachomatis = assay: DFA staining of vaginal smears after challenge of peptide-immunized mice; assay type: in vivo, mouse; details: mice immunized three times at 100 μg doses; days 7 and 14 post-challenge
From the text: Mice are challenged with a human biovar of C trachomatis (K or E serovars for urogenital infections; C or B serovars for ocular infection).
Groups of 4-8 mice are “masked” as to pretreatment before challenge with live elementary bodies (EB). At weekly intervals through at least 4 wks, vaginal (or conjunctival) swabs are collected for isolation culture and direct fluorescence antibody staining for EB.
Using the murine models described above, the present inventors immunized mice with one of the four peptides (Pep4, 7, 8 or 10) administered three times at 100 μg doses. Results of direct fluorescent antibody (DFA) staining are summarized for days 7 and 14 post-challenge in FIGS. 10-11.

Pep4, Pep7, Pep8, Pep10 = assay: Cross-reactivity between peptides in ELISA; assay type: binding; details: sera of mice immunized with a single peptide
Method: as §1
Both of these are category #1 peptides. […] That supports the notion that CDR1 and CDR3 of mAb2 are antigenically distinct.

chlamydia = assay: Gross anatomical observation of genital tract inflammation after challenge; assay type: in vivo, mouse; details: female mice primed and boosted twice SC, necropsy ~28 days post-challenge, vs adjuvant-only control
From the text: FIG. 15A-15C is a set of three photographs showing the gross morphology of tissues of the female reproductive tract of mice immunized and then challenged 28 days earlier with Pep4 or Pep7. Mice had been primed and boosted twice SC, as above, and were challenged with chlamydia 2 weeks later, rechallenged and sacrificed 4 weeks after re-challenge. Inflamed genital tracts outlined in dashed lines.
Genital tracts were exposed at necropsy ˜28 days post-challenge to score inflammatory changes (and then removed for histological analysis). […] Representative examples for recipients of Peptides 4 and 7 are shown in the center and right panels, respectively. Yellow arrows point to uterine horns (which are further demarcated with dashed lines). It is evident that the peptide immunogens reduced the gross pathology of the genital tract even weeks after challenge. This has been reproduced in a second experiment in which control mice received an irrelevant peptide instead of Peptides 4 or 7. Based on what is known in the art from other contexts, the histopathological results are expected to be consistent with these gross anatomical observations.

| Sequence | structures recognized by immune sera in infected cells [1] | ELISA 1:40 on 4 peptides Scale: 1+-3+ (human sera; human serum sample # 1) | ELISA 1:40 on 4 peptides Scale: 1+-3+ (human sera; human serum sample # 2) | ELISA 1:40 on 4 peptides Scale: 1+-3+ (human sera; human serum sample # 3) | ELISA 1:40 on 4 peptides Scale: 1+-3+ (human sera; human serum sample # 5) | ELISA 1:40 on 4 peptides Scale: 1+-3+ (human sera; human serum sample # 7) | ELISA 1:40 on 4 peptides Scale: 1+-3+ (human sera; human serum sample # 8) | ELISA 1:40 on 4 peptides Scale: 1+-3+ (human sera; human serum sample # 9) | ELISA 1:40 on 4 peptides Scale: 1+-3+ (human sera; human serum sample # 10) | ELISA 1:40 on 4 peptides Scale: 1+-3+ (human sera; human serum sample # 12) | ELISA 1:40 on 4 peptides Scale: 1+-3+ (human sera; human serum sample # 13) | ELISA 1:40 on 4 peptides Scale: 1+-3+ (human sera; human serum sample # 16) | ELISA 1:40 on 4 peptides Scale: 1+-3+ (human sera; human serum sample # 18) | ELISA 1:40 on 4 peptides Scale: 1+-3+ (human sera; human serum sample # 21) | ELISA 1:40 on 4 peptides Scale: 1+-3+ (human sera; human serum sample # 22) | ELISA 1:40 on 4 peptides Scale: 1+-3+ (human sera; human serum sample # 23) | ELISA 1:40 on 4 peptides Scale: 1+-3+ (human sera; human serum sample # 24) | ELISA 1:40 on 4 peptides Scale: 1+-3+ (human sera; human serum sample # 26) | further results |
| --- | --- | --- | --- | --- | --- | --- | --- | --- | --- | --- | --- | --- | --- | --- | --- | --- | --- | --- | --- |
| RYDVGGDHYYFTMD [Pep10] | recognized targets in the inclusion matrix and membrane | 2 | 1 | 2.5 | 1.5 | 1 | 3 | 3 | 2 | 2 | 2 | 1 | 2 | 3 | 2 | 1 | 2 | 1.5 | – |
| GYTFTDYSMH [Pep8] | recognized targets in the inclusion matrix and membrane | 2 | 1 | 2.5 | 2 | 1 | 3 | 3 | 2 | 2 | 2 | 1.5 | 3 | 3 | 1.5 | 1.5 | 2 | 2 | bacterial shedding measured by DFA staining (C trachomatis): reduced bacterial shedding; cross-reactivity of raised Abs with Peps 4, 7 or 10 (ELISA) (Pep4, Pep7, Pep8, Pep10): did not cross-react |
| HALMPATAVASL [Pep7] | recognized EB and metabolically active, non-infectious reticulate bodies (RB) | 1.5 | 1 | 2.5 | 2 | 0.75 | 3 | 3 | 2 | 1.5 | 2 | 1.5 | 3 | 2 | 1.5 | 1.5 | 1.5 | 2 | gross inflammation / pathology of the genital tract (chlamydia): not nearly as inflamed; cross-reactivity of raised Abs with Pep4 (ELISA) (Pep4, Pep7, Pep8, Pep10): cross reacted |
